Results taken from PMC5550016, “Aminophosphinates against Helicobacter pylori ureolysis—Biochemical and whole-cell inhibition characteristics” (PLoS ONE, 2017).
“And” between values parts separate entries of the source, which are not always exact repeats. Equal entries are not always repeated. Where two headings read alike, the source gives them in different places.

Key:
[1] = molecular target: T1, purified recombinant urease from H. pylori (Helicobacter pylori, UniProt B5Z674); test: Inhibition of purified recombinant H. pylori urease (phenol-hypochlorite, Lineweaver-Burk); assay type: biochemical; settings: 50 mM phosphate buffer pH 7.5, 37°C, 0.1–2.5 mM urea, competitive reversible inhibition
T1 construct: plasmid pGEM::ureOP, which encodes the entire urease gene cluster, was used to produce recombinant H. pylori urease; made in house; host or cells: E. coli Rosetta2 (DE3) + pGEM::ureOP
T1 sequence (B5Z674 whole entry, looked up): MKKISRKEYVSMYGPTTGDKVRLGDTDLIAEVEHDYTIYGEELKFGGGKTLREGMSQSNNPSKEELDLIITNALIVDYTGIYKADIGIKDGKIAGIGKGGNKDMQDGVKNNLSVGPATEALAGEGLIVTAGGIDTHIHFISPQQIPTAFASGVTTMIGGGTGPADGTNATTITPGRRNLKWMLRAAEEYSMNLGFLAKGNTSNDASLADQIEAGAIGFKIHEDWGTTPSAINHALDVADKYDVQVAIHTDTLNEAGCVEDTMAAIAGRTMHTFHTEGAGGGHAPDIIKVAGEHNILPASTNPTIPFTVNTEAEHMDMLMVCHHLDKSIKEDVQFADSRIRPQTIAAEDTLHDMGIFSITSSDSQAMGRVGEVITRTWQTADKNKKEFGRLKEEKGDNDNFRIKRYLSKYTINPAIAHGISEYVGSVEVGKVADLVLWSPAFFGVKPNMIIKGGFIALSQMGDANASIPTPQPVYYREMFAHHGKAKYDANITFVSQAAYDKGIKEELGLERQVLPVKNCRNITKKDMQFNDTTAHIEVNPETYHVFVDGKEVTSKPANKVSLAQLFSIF
Protocol: The kinetic parameters of urease were determined by measuring the initial rates of the reactions in 50 mM phosphate buffer (pH 7.5) at 37°C. Ammonia was routinely quantified by the phenol hypochlorite method as reported previously.
Inhibition studies were conducted by initiating the enzymatic reaction with the addition of the enzyme into assay mixtures (200 μL total volume) containing increasing concentrations of inhibitors and 0.1–2.5 mM urea. After 15 min of incubation at 37°C, the reaction was stopped by adding phenol-hypochlorite reagents and the absorbance of the formed indophenol blue complexes was measured at 650 nm. The Ki values were determined from Lineweaver-Burk plots after testing at least five inhibitor concentrations in a range that depended on their inhibitory strength. The concentration of inhibitor that caused the loss of 50% of the enzyme’s activity (IC50) was determined from the measurements that were performed at a urea concentration of 0.6 mM and calculated using the linear regression of the urease activity versus the logarithm of the inhibitor concentrations.
The values of Ki and IC50 for all analyzed compounds were calculated using the appropriate equations in GraphPad Prism 5. Errors were reported with two significant digits, and each measured parameter was given with the same number of decimal places as its error [32].

[2] = molecular target: T2, urease in intact E. coli (pGEM::ureOP) cells (Helicobacter pylori, UniProt B5Z674); test: Urease inhibition in whole cells of E. coli + pGEM::ureOP; assay type: cell-based; settings: IC50 exceeding 2 mM considered not active
T2 construct: plasmid pGEM::ureOP, which encodes the entire urease gene cluster, was used to produce recombinant H. pylori urease; expressed in transfected cells; host or cells: E. coli Rosetta2 (DE3) transformed with pGEM::ureOP
T2 sequence (B5Z674 whole entry, looked up): as above
Protocol: The expression strain E. coli + pGEM::ureOP was cultured in 150 mL of LB broth (Biocorp, Poland) with 100 μg/mL ampicillin (Polfa, Tarchomin, Poland) at 37°C and induced with IPTG (0.75 mM) and Ni^2+ (0.75 mM) during the exponential growth phase, which was determined by the OD600 measurements (OD600 = 0.6). Further expression was conducted for 24 h at 22°C. The bacterial culture (1 mL) was harvested via centrifugation (2 min, 20 376 x g, 37°C) and washed three times with PBS. The pellets from 1-mL samples of the expression cell culture were resuspended in 100 μL of PBS. The hydrolysis of urea that is catalyzed by whole bacterial cells was performed in 96-well plates (Rotilabo, U-profile). The reaction progress curves were obtained by the addition of bacterial cells (1×10^9 CFU/mL final concentration) into mixtures (300 μL final volume) that contained 5 mM urea and various inhibitor concentrations that depended on their inhibitory strength. Alternatively, the reaction was initiated via the addition of a concentrated solution of urea after a 120-min preincubation of bacterial cells with the inhibitor. Samples (50 μL) of the reaction mixture were removed after the appropriate reaction time. The enzymatic reactions in the samples were terminated via the introduction of 100 μL of phenol-sodium nitroprusside solution, immediately followed by the addition of 100 μL of NaOH-hypochlorite solution. The absorption of indophenol blue was measured at 650 nm using a TECAN-Sunrise absorbance reader equipped with a gradient filter and Magellan software. The IC50 values were determined from the linear regression of the urease activity versus the logarithm of the inhibitor concentration. The reaction was studied in the absence and in the presence of the inhibitor. The influence of dimethylformamide (DMF), which was used as a solvent for several compounds, was also determined.

[3] = molecular target: T3, urease in intact H. pylori J99 (Helicobacter pylori, UniProt P69997); test: Urease inhibition in whole cells of H. pylori J99; assay type: cell-based
T3 construct: In the intact H. pylori J99 cells, the urease susceptibility profile was similar to that of E. coli (pGEM::ureOP); endogenous in cells
T3 sequence (Q9ZMZ4 whole entry): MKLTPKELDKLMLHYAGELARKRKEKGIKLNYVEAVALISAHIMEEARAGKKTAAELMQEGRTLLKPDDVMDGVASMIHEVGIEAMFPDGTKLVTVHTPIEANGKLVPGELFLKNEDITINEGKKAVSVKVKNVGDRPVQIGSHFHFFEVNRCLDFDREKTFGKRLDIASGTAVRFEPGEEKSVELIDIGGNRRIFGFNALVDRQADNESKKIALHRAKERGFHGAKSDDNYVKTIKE
T3 sequence (P69997 whole entry): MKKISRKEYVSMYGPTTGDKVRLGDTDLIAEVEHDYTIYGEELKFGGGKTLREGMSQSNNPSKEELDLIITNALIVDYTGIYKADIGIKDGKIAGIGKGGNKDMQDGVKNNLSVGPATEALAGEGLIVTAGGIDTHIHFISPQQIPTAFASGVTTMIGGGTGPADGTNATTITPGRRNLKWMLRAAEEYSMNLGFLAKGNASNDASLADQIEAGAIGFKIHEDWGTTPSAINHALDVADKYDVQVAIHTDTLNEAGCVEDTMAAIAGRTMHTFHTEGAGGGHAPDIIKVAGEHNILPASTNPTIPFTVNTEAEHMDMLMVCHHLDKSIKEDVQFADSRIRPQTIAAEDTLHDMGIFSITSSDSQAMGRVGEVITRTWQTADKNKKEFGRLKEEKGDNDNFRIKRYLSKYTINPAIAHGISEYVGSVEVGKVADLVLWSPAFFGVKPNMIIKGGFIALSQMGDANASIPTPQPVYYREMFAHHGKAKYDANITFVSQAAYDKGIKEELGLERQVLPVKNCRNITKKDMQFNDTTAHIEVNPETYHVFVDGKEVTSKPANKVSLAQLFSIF

[4] = system: mouse fibroblasts BALB/3T3; test: Sulforhodamine B antiproliferative assay, BALB/3T3; assay type: cell-based; settings: compound 0.5 mM, 72 h, read-out: % Proliferation inhibition ± SD
Protocol: (§1) The BALB/3T3 cell line was cultured in Dulbecco MEM (Gibco, Scotland) supplemented with 10% (v/v) FBS (Sigma-Aldrich, Poznań, Poland) and 2 mM L-glutamine (Sigma-Aldrich, Poznań, Poland). The MCF-10A cell line was cultured in F-12 Nutrient mixture supplemented with 5% (v/v) horse serum (both Gibco, Scotland), 0.05 μg/mL cholera toxin, 10 μg/mL insulin, 0.5 μg/mL hydrocortisone, and 20 ng/mL EGFH (all Sigma-Aldrich, Poznań, Poland). The Eph4-Ev cell line was cultured in Dulbecco MEM supplemented with 2 mM L-glutamine, 10% (v/v) calf bovine serum (ATCC Rockville, Maryland, USA) and puromycin (Sigma-Aldrich, Poznań, Poland). The HEC A10 cell line was cultured in OPTI-MEM (IIET, Wroclaw, Poland) supplemented with 2 mM L-glutamine and 5% (v/v) FBS. All culture media were additionally supplemented with antibiotics: 100 U/mL penicillin and 100 μg/mL streptomycin (both Polfa-Tarchomin, Poland). During all experiments, cells were maintained in a humid atmosphere at 37°C and 5% CO2 and passaged twice a week using EDTA-Trypsin (pH 8; IIET, Wroclaw, Poland) solution as a detachment agent.
(§2) This assay was used as previously described with minor modifications. Briefly, 24 h before adding the tested compounds, cells were seeded in 96-well plates (Sarstedt, Germany) in appropriate culture medium with 10^5 […] (100 μL/well). Cells were treated with each compound in at least four concentrations in the range from 500–4 μM for 72 h. Next, cells were fixed with 50 μL/well of 50% (w/v) trichloroacetic acid (Avantor Performance Materials, Gliwice, Poland). After a 1-hour incubation, the plates were washed several times with tap water, and 50 μL of 0.4% (w/v) solution of sulforhodamine B (Sigma-Aldrich, Germany) in 1% (v/v) acetic acid (Avantor Performance Materials, Gliwice, Poland) was added to each well. After a 30-min incubation at room temperature, unbound dye was washed out with 1% (v/v) acetic acid, whereas bound dye was solubilized with 10 mM unbuffered TRIS (Avantor Performance Materials, Gliwice, Poland) solution. The entire procedure was performed using an EL-406 washing station (BioTek Instruments, USA). Next, absorbance at 540 nm was measured using a Synergy H4 Hybrid Reader (BioTek Instruments, USA). Compounds at each concentration were tested in triplicate in a single experiment, and each experiment was repeated three times independently. The results were calculated using the Prolab-3 system based on Cheburator 0.4 software and was presented as proliferation inhibition percentages at the highest concentration used.

[5] = system: murine mammary gland epithelium Eph4-Ev; test: Sulforhodamine B antiproliferative assay, Eph4-Ev; assay type: cell-based; settings: Mus musculus, compound 0.5 mM, 72 h, read-out: % Proliferation inhibition ± SD
Protocol: as §1, §2

[6] = system: immortalized murine endothelial cell line from peripheral lymph node HEC A10; test: Sulforhodamine B antiproliferative assay, HEC A10; assay type: cell-based; settings: Mus musculus, compound 0.5 mM, 72 h, read-out: % Proliferation inhibition ± SD
Protocol: as §1, §2

[7] = system: human mammary gland MCF-10A; test: Sulforhodamine B antiproliferative assay, MCF-10A; assay type: cell-based; settings: compound 0.5 mM, 72 h, read-out: % Proliferation inhibition ± SD
Protocol: as §1, §2

[8] = molecular target: purified urease from Sporosarcina pasteurii (SPU); set-up: method as in PMID 18717581, PMID 20684601, PMID 21559954, PMID 25699141; settings: read-out: Ki against SPU; cited from earlier work
[9] = molecular target: purified urease from Proteus mirabilis (PMU); set-up: method as in PMID 18717581, PMID 20684601, PMID 21559954, PMID 25699141; settings: read-out: Ki against PMU; cited from earlier work
[10] = set-up: method as in PMID 9508511; settings: pH 2; cited from earlier work
[11] = IC500, without preincubation of cells with inhibitory compounds, 30-min reactions, 5 mM urea
[12] = IC502h PBS, 2 h of preincubation with inhibitors in PBS
[13] = cells grown with urea, 2 h of preincubation with inhibitors in PBS under microaerobic conditions, read-out: IC502h PBS
[14] = cells grown with urea, 2 h of preincubation with inhibitors in growth medium under microaerobic conditions, read-out: IC502h medium
[15] = cells grown with urea, without preincubation, read-out: IC500
[16] = cells grown without urea, 2 h of preincubation with inhibitors in PBS under microaerobic conditions, read-out: IC502h PBS
[17] = cells grown without urea, without preincubation, read-out: IC500
[18] = read-out: IC500, without preincubation of cells with inhibitory compounds, 30-min reactions, 5 mM urea
[19] = read-out: IC502h PBS, 2 h of preincubation with inhibitors in PBS

Row | SMILES | Ki ([1]; Ki) | IC50 [2, 11] | IC50 [2, 12] | IC50 [3, 13] | IC50 [3, 14] | IC50 [3, 15] | IC50 [3, 16] | IC50 [3, 17] | inhibition at 500 µM [4] | inhibition at 500 µM [5] | inhibition at 500 µM [6] | inhibition at 500 µM [7] | Ki [8] | Ki [9] | Ki [1] | IC50 [2, 18] | IC50 [2, 19] | IC500 ([2]; without preincubation of cells with inhibitory compounds, 30-min reactions, 5 mM urea) | half-life [10] | IC50 ([3]; cells grown without urea, preincubated cells, read-out: IC50)
1 | CNCP(=O)(O)CO [Compound 4, N-methylaminomethyl-P-hydroxymethylphosphinic acid] | 1.03 µM | 759 ± 106 µM | 430 ± 63 µM | 373 ± 48 µM | 207 ± 11 µM | 465 ± 42 µM | 676 ± 23 µM | 341 ± 41 µM | 0% | 0% | 0% | 0% | 0.43 µM | – | – | – | – | – | – | –
2 | CCCCCCNCP(=O)(O)CN [Compound 13, N-n-hexylaminomethyl-P-aminomethylphosphinic acid] | 0.29 µM and 0.294 µM | 186 ± 30 µM | 16.9 ± 2.2 µM | 608 ± 23 µM | 205 ± 15 µM | 510 ± 16 µM | 742 ± 55 µM | 597 ± 19 µM | 6.5 ± 3.6% | 0% | 0% | 0.5 ± 0.4% | – | 0.2 µM | – | – | – | – | – | –
3 | CNCP(=O)(O)O [Compound 1, N-methylaminomethylphosphonic acid] | 38.3 ± 1.1 µM | 164 ± 24 µM | 110 ± 21 µM | 349 ± 29 µM | 202 ± 43 µM | 400 ± 8.7 µM | 598 ± 81 µM | 316 ± 18 µM | 2.7 ± 1.8% | 1.3 ± 2.3% | 0% | 0% | – | – | – | – | – | – | – | –
4 | CCCNCP(=O)(O)CN [Compound 9] | 22.1 ± 2.1 µM | 746 ± 94 µM | 306 ± 43 µM | 940 ± 59 µM | 553 ± 44 µM | 1500 ± 160 µM | 883 ± 96 µM | 772 ± 143 µM | 0.7 ± 0.6% | 0% | 2.2 ± 1.5% | 0% | – | – | – | – | – | – | – | –
5 | CCCCCCCCNCP(=O)(O)CN [Compound 15] | – | – | – | 712 ± 28 µM | 276 ± 17 µM | 1010 ± 84 µM | 638 ± 22 µM | 1260 ± 53 µM | 0% | 2.7 ± 1.1% | 0% | 1.8 ± 1.2% | – | – | > 2000 µM | > 2000 µM | > 2000 µM | – | – | –
6 | NCP(=O)(O)CN [Compound 6, Bis(aminomethyl)phosphinic acid] | 61 ± 9.2 µM | – | – | > 2000 µM | > 2000 µM | > 2000 µM | 611 ± 63 µM | 1300 ± 239 µM | 3.2 ± 1.6% | 0% | 7.7 ± 2.4% | 0% | – | – | – | > 2000 µM | > 2000 µM | complete lack of inhibitory effects | – | –
7 | CN(C)CP(C)(=O)O [Compound 3, N,N-dimethylaminomethyl-P-methylphosphinic acid] | 9.27 ± 0.35 µM | 179 ± 32 µM | 25.1 ± 4.9 µM | 395 ± 37 µM | 304 ± 16 µM | 640 ± 18 µM | 765 ± 31 µM | 530 ± 24 µM | – | – | – | – | 0.62 µM | – | – | – | – | – | – | –
8 | NP(N)(=O)NC(=O)c1ccc(F)cc1 [fluorofamide, N-(diaminophosphinyl)-4-fluorobenzamide] | – | – | – | – | – | – | – | – | – | – | – | – | – | – | – | – | – | – | 5 min | –
9 | CNCP(=O)(O)CN [Compound 7] | 20.9 ± 2 µM | 880 ± 105 µM | 440 ± 61 µM | 456 ± 45 µM | 574 ± 44 µM | > 2000 µM | 418 ± 48 µM | 327 ± 68 µM | 0% | 3.9 ± 2.1% | 0% | 0% | – | – | – | – | – | – | – | < 500 µM
